In article PMC1989143, “An Expanded Set of Amino Acid Analogs for the Ribosomal Translation of Unnatural Peptides” (PLoS ONE, 2007):

Columns and labels:
Assay in all cases: tRNA aminoacylation competition assay, MALDI-TOF MS
Type in all cases: biochemical
PheRS = target: T1, PheRS (Escherichia coli, UniProt P08312); settings: 5000 µM; 5 µM natural Phe (Table 3), 6 mM ATP, 17 mM MgCl2, E. coli total tRNA, pH 7.4, 37 °C; competitive
T1 construct: gene pheS; His-tagged, recombinant, purified; wild-type enzyme; with Phenylalanine--tRNA ligase beta subunit
T1 sequence (P08312 whole entry): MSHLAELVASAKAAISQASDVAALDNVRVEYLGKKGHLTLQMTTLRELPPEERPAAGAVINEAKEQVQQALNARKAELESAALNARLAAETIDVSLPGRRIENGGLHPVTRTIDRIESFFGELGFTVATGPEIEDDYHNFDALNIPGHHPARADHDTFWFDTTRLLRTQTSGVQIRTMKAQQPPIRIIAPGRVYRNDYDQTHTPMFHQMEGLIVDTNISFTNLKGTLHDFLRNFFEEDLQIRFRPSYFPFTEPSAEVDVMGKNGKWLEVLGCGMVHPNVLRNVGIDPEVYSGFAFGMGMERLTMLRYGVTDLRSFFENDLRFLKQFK
T1 sequence (P07395 whole entry partner): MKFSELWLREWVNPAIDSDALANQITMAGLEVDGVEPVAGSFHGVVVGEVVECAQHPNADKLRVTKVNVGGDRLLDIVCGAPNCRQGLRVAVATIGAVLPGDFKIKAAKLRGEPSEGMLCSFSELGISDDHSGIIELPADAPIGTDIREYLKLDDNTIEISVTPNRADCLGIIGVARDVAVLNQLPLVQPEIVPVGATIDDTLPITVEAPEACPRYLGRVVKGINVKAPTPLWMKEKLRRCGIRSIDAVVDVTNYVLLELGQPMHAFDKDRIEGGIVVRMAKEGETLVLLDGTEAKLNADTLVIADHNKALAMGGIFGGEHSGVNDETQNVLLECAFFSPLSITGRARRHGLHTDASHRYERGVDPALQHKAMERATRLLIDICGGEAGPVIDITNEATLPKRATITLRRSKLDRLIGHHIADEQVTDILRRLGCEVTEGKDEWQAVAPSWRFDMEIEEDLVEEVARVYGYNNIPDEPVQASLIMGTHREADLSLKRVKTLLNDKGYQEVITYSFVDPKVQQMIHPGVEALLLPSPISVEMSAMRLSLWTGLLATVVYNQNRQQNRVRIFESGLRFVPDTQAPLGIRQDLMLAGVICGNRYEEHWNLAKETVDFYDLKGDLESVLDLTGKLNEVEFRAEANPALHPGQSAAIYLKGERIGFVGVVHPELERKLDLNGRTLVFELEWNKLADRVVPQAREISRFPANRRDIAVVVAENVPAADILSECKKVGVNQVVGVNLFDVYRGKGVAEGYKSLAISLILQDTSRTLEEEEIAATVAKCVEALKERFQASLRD
Description: tRNA aminoacylation competition assay, MALDI-TOF MS on PheRS

ArgRS = target: T2, ArgRS (Escherichia coli, UniProt P11875); settings: 20000 µM; 20 µM natural Arg (Table 3), 6 mM ATP, 17 mM MgCl2, E. coli total tRNA, pH 7.4, 37 °C; competitive
T2 construct: gene argS; His-tagged, recombinant, purified
T2 sequence (P11875 1-577): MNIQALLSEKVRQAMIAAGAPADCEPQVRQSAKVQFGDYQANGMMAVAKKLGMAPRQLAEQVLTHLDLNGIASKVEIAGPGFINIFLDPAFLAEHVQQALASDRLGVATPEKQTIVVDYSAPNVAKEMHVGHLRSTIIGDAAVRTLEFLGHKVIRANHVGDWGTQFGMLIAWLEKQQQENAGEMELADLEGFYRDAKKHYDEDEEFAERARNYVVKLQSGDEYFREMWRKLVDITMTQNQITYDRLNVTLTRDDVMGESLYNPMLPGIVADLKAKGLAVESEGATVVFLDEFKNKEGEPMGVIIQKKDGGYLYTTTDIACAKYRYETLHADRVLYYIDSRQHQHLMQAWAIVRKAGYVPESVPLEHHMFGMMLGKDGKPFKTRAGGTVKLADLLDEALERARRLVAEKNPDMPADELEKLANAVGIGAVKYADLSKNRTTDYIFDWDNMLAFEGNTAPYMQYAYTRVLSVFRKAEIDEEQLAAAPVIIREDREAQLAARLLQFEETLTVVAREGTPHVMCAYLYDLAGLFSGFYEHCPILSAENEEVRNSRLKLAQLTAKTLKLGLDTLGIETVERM
Description: tRNA aminoacylation competition assay, MALDI-TOF MS on ArgRS

ThrRS = target: T3, ThrRS (Escherichia coli, UniProt P0A8M3); settings: 50000 µM; 50 µM natural Thr (Table 3), 6 mM ATP, 17 mM MgCl2, E. coli total tRNA, pH 7.4, 37 °C; competitive
T3 construct: gene thrS; His-tagged, recombinant, purified
T3 sequence (P0A8M3 whole entry): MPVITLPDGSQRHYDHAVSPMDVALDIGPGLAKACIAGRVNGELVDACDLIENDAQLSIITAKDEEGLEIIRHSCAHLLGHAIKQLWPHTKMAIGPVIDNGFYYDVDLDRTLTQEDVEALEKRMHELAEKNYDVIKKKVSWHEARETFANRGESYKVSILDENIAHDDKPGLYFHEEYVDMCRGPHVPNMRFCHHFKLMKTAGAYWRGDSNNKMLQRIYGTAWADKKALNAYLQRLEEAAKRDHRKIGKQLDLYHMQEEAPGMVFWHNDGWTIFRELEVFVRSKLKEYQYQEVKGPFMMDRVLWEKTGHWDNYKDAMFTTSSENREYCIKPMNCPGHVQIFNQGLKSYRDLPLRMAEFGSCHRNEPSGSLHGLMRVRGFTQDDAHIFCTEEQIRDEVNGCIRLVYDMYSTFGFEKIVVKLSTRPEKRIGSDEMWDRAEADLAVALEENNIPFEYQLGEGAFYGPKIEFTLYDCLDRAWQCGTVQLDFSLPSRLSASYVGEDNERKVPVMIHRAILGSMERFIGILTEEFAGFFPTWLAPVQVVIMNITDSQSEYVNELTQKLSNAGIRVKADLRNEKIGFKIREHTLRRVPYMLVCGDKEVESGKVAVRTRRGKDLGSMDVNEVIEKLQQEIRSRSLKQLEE
Description: tRNA aminoacylation competition assay, MALDI-TOF MS on ThrRS

NC(Cc1ccccc1F)C(=O)O (stereo not drawn) [A5, 2-fluoro Phe]
% Inhibition ^b (PheRS): 78 (range 2.1) %

N=C(N)NOCC[C@H](N)C(=O)O [C10, L-canavanine]
% Inhibition ^b (ArgRS): 82 (range 10.3) %

CCC(O)C(N)C(=O)O (racemic) [P5, DL-β-hydroxy norvaline]
% Inhibition ^b (ThrRS): 92 (range 2.9) %
